Results: patent publication US9617256B2 (priority 2007, dated 2017)
Converted amounts (≈) assume the structure as drawn.

Tests used:
AECO001 (ATCC25922) = assay: MIC broth microdilution, AECO001; assay type: cell-based, E. coli; conditions: Escherichia coli, ATCC25922, read-out: MIC AECO001
Method in brief: (§1)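 MICs come from broth microdilution in cation-adjusted Mueller-Hinton broth, final inoculum 3×10^5–7×10^5 CFU/mL, 18-24 hours at 35° C. Levofloxacin and QC strains served as assay controls.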

APAE001 (ATCC27853) = assay: MIC broth microdilution, APAE001; assay type: cell-based, P. aeruginosa; conditions: Pseudomonas aeruginosa, ATCC27853, read-out: MIC APAE001, APAE001 is ATCC27853
Method in brief: as §1

AECO001 HSA AGP = assay: MIC broth microdilution, AECO001 HSA AGP; assay type: cell-based, E. coli; conditions: Escherichia coli
Description: Bacterial isolates were cultivated from −70° C. frozen stocks by overnight passages at 35° C. in ambient air on Mueller-Hinton agar (Beckton Dickinson, Franklin Lakes, N.J.). Clinical isolates tested were obtained from various geographically diverse hospitals in the US and abroad (Focus Diagnostics, Herndon, Va. and JMI, North Liberty, Iowa). Quality control strains were from the American Type Culture Collection (ATCC; Rockville, Md.). Additional primary panel strains were generated using standard molecular biology techniques.
Minimum Inhibitory Concentrations (MICs) were determined by the broth microdilution method in accordance with the Clinical and Laboratory Standards Institute (CLSI) guidelines. In brief, organism suspensions were adjusted to a 0.5 McFarland standard to yield a final inoculum between 3×10^5 and 7×10^5 colony-forming units (CFU)/mL. Drug dilutions and inocula were made in sterile, cation adjusted Mueller-Hinton Broth (Beckton Dickinson). An inoculum volume of 100 μL was added to wells containing 100 μL of broth with 2-fold serial dilutions of drug. All inoculated microdilution trays were incubated in ambient air at 35° C. for 18-24 hours. […] Performance of the assay was monitored by the use of laboratory quality-control strains and levofloxacin, a compound with a defined MIC spectrum, in accordance with CLSI guidelines.
*AECO001 is ATCC25922, AECO063 is ATCC25922 bearing an acrAB mutation, APAE001 is ATCC27853, APAE006 is a strain of P. aeruginosa in which all efflux pumps are inactivated, APAE006+PMBN indicates MICs with the indicated strain in the presence of 8 micrograms per milliliter of polymyxin B nonapeptide, AABA1060 is a clinical isolate of Acinetobacter baumannii, ASAU001 is a laboratory strain of S. aureus (ATCC29213).

[1] = test system: APAE006 (strain of P. aeruginosa in which all efflux pumps are inactivated); assay: microbe, parasite or virus in culture; assay type: cell-based; conditions: Pseudomonas aeruginosa, read-out: MIC APAE006, P. aeruginosa, all efflux pumps inactivated
Method in brief: (§2)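 For the efflux-deficient P. aeruginosa APAE006, one set of MICs includes polymyxin B nonapeptide at 8 micrograms per milliliter.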

[2] = test system: AABA1060 (clinical isolate of Acinetobacter baumannii); assay: MIC broth microdilution, AABA1060; assay type: cell-based; conditions: Acinetobacter baumannii, read-out: MIC AABA1060
Method in brief: as §1

[3] = test system: AECO063 (ATCC25922 bearing an acrAB mutation); assay: microbe, parasite or virus in culture; assay type: cell-based, E. coli; conditions: Escherichia coli, ATCC25922, read-out: MIC AECO063
Method in brief: as §1

[4] = test system: ASAU001 (laboratory strain of S. aureus, ATCC29213); assay: MIC broth microdilution, ASAU001; assay type: cell-based; conditions: Staphylococcus aureus, ATCC29213, read-out: MIC ASAU001
Method in brief: as §1

[5] = test system: APAE006 in the presence of 8 micrograms per milliliter of polymyxin B nonapeptide; assay type: cell-based, P. aeruginosa; conditions: in the presence of 8 micrograms per milliliter of polymyxin B nonapeptide
Method in brief: as §2

Structure (SMILES) | MIC (AECO001 (ATCC25922)) [µg/mL] | MIC (APAE001 (ATCC27853)) [µg/mL] | MIC (AECO001 HSA AGP) [µg/mL] | MIC [1] [µg/mL] | MIC [2] [µg/mL] | MIC [3] [µg/mL] | MIC [4] [µg/mL] | MIC APAE006 + PMBN [5]
C[C@@H](N)[C@H](NC(=O)c1ccc(C#CC#Cc2ccccc2)cc1)C(=O)NO [Example 82-4] | < 2 | 2 to 16 (≈ 5.53 to 44.3 µM) | 2 to 16 (≈ 5.53 to 44.3 µM) | < 2 | 2 to 16 (≈ 5.53 to 44.3 µM) | < 2 | 2 to 16 (≈ 5.53 to 44.3 µM) | A (MIC's of 2.0 μg/mL or less = A)
C[C@@H](N)[C@H](NC(=O)c1ccc(C#CC#Cc2cccc(F)c2)cc1)C(=O)NO [Example 82-5] | < 2 | < 2 | 2 to 16 (≈ 5.27 to 42.2 µM) | < 2 | 2 to 16 (≈ 5.27 to 42.2 µM) | < 2 | 2 to 16 (≈ 5.27 to 42.2 µM) | A (MIC's of 2.0 μg/mL or less = A)
C[C@@H](O)[C@H](NC(=O)c1ccc(C#CC#Cc2ccc(C(F)(F)F)cc2)cc1)C(=O)NO [Example 82-6] | < 2 | 2 to 16 (≈ 4.65 to 37.2 µM) | 2 to 16 (≈ 4.65 to 37.2 µM) | 2 to 16 (≈ 4.65 to 37.2 µM) | 16 to 64 (≈ 37.2 to 149 µM) | < 2 | 16 to 64 (≈ 37.2 to 149 µM) | A (MIC's of 2.0 μg/mL or less = A)
C[C@@H](N)[C@H](NC(=O)c1ccc(C#CC#Cc2ccccc2F)cc1)C(=O)NO [Example 82-7] | < 2 | < 2 | 2 to 16 (≈ 5.27 to 42.2 µM) | < 2 | < 2 | < 2 | 2 to 16 (≈ 5.27 to 42.2 µM) | A (MIC's of 2.0 μg/mL or less = A)
C[C@@H](N)[C@H](NC(=O)c1ccc(C#CC#Cc2ccc(Cl)cc2)cc1)C(=O)NO [Example 82-8] | < 2 | 16 to 64 (≈ 40.4 to 162 µM) | 2 to 16 (≈ 5.05 to 40.4 µM) | < 2 | > 64 | < 2 | > 64 | A (MIC's of 2.0 μg/mL or less = A)
C[C@@H](N)[C@H](NC(=O)c1ccc(C#CC#Cc2cccc(Cl)c2)cc1)C(=O)NO [Example 82-9] | < 2 | 2 to 16 (≈ 5.05 to 40.4 µM) | 2 to 16 (≈ 5.05 to 40.4 µM) | < 2 | 2 to 16 (≈ 5.05 to 40.4 µM) | < 2 | 2 to 16 (≈ 5.05 to 40.4 µM) | A (MIC's of 2.0 μg/mL or less = A)
C[C@@H](N)[C@H](NC(=O)c1ccc(C#CC#Cc2ccccc2Cl)cc1)C(=O)NO [Example 82-10] | < 2 | 2 to 16 (≈ 5.05 to 40.4 µM) | 2 to 16 (≈ 5.05 to 40.4 µM) | < 2 | 2 to 16 (≈ 5.05 to 40.4 µM) | < 2 | 2 to 16 (≈ 5.05 to 40.4 µM) | A (MIC's of 2.0 μg/mL or less = A)
C[C@@H](N)[C@H](NC(=O)c1ccc(C#CC#Cc2ccc(OC(F)(F)F)cc2)cc1)C(=O)NO [Example 82-11] | 2 to 16 (≈ 4.49 to 35.9 µM) | 16 to 64 (≈ 35.9 to 144 µM) | 2 to 16 (≈ 4.49 to 35.9 µM) | 2 to 16 (≈ 4.49 to 35.9 µM) | 16 to 64 (≈ 35.9 to 144 µM) | < 2 | 16 to 64 (≈ 35.9 to 144 µM) | A (MIC's of 2.0 μg/mL or less = A)
C[C@@H](N)[C@H](NC(=O)c1ccc(C#CC#Cc2ccc(F)cc2)cc1)C(=O)NO [Example 82-12] | < 2 | 2 to 16 (≈ 5.27 to 42.2 µM) | 2 to 16 (≈ 5.27 to 42.2 µM) | < 2 | 2 to 16 (≈ 5.27 to 42.2 µM) | < 2 | 16 to 64 (≈ 42.2 to 169 µM) | A (MIC's of 2.0 μg/mL or less = A)
CC(C)(O)[C@H](NC(=O)c1ccc(C#CC#Cc2ccccc2)cc1)C(=O)NO [Example 82-13] | < 2 | < 2 | < 2 | < 2 | < 2 | < 2 | 16 to 64 (≈ 42.5 to 170 µM) | A (MIC's of 2.0 μg/mL or less = A)
C[C@@H](O)[C@H](NC(=O)c1ccc(C#CC#Cc2ccc(CO)cc2)cc1)C(=O)NO [Example 82-14] | < 2 | < 2 | 16 to 64 (≈ 40.8 to 163 µM) | < 2 | < 2 | < 2 | 16 to 64 (≈ 40.8 to 163 µM) | A (MIC's of 2.0 μg/mL or less = A)
CC(C)(O)[C@H](NC(=O)c1ccc(C#CC#Cc2ccc(CO)cc2)cc1)C(=O)NO [Example 82-15] | < 2 | < 2 | 16 to 64 (≈ 39.4 to 157 µM) | < 2 | < 2 | < 2 | 16 to 64 (≈ 39.4 to 157 µM) | A (MIC's of 2.0 μg/mL or less = A)
C[C@@H](N)[C@H](NC(=O)c1ccc(C#CC#Cc2ccc(N)cc2)cc1)C(=O)NO [Example 82-16] | < 2 | < 2 | 2 to 16 (≈ 5.31 to 42.5 µM) | < 2 | < 2 | < 2 | 16 to 64 (≈ 42.5 to 170 µM) | A (MIC's of 2.0 μg/mL or less = A)
O=C(CNC1CC1)NC[C@H](NC(=O)c1ccc(C#CC#Cc2ccccc2)cc1)C(=O)NO [Example 85-1, N—[(S)-2-(2-Cyclopropylamino-acetylamino)-1-hydroxycarbamoyl-ethyl]-4-(4-phenyl-buta-1,3-diynyl)-benzamide] | < 2 | 2 to 16 (≈ 4.5 to 36 µM) | 2 to 16 (≈ 4.5 to 36 µM) | < 2 | 16 to 64 (≈ 36 to 144 µM) | < 2 | 16 to 64 (≈ 36 to 144 µM) | A (MIC's of 2.0 μg/mL or less = A)
C[C@@H](NC(=O)CNC1CC1)[C@H](NC(=O)c1ccc(C#CC#Cc2ccccc2)cc1)C(=O)NO [Example 85-2] | < 2 | 2 to 16 (≈ 4.36 to 34.9 µM) | 2 to 16 (≈ 4.36 to 34.9 µM) | < 2 | 16 to 64 (≈ 34.9 to 140 µM) | < 2 | 16 to 64 (≈ 34.9 to 140 µM) | A (MIC's of 2.0 μg/mL or less = A)
C[C@@H](N)[C@H](NC(=O)c1ccc(C#CC#Cc2ccc(CN3CCOCC3)cc2)cc1)C(=O)NO [Example 86-2] | < 2 | 2 to 16 (≈ 4.34 to 34.7 µM) | < 2 | < 2 | 2 to 16 (≈ 4.34 to 34.7 µM) | < 2 | 16 to 64 (≈ 34.7 to 139 µM) | A (MIC's of 2.0 μg/mL or less = A)
C[C@@H](N)[C@H](NC(=O)c1ccc(C#CC#Cc2ccc(CNC3CC3)cc2)cc1)C(=O)NO [Example 86-3] | < 2 | < 2 | < 2 | < 2 | 2 to 16 (≈ 4.65 to 37.2 µM) | < 2 | 16 to 64 (≈ 37.2 to 149 µM) | A (MIC's of 2.0 μg/mL or less = A)
C[C@@H](O)[C@H](NC(=O)c1ccc(C#CC#Cc2ccc(CNC3CC3)cc2)cc1)C(=O)NO [Example 87-2] | < 2 | < 2 | < 2 | < 2 | 16 to 64 (≈ 37.1 to 148 µM) | < 2 | 16 to 64 (≈ 37.1 to 148 µM) | A (MIC's of 2.0 μg/mL or less = A)
CC(C)(O)[C@H](NC(=O)c1ccc(C#CC#Cc2ccc(CNC3CC3)cc2)cc1)C(=O)NO [Example 87-3] | < 2 | < 2 | < 2 | < 2 | < 2 | < 2 | 16 to 64 (≈ 35.9 to 144 µM) | A (MIC's of 2.0 μg/mL or less = A)
C[C@@H](N)[C@H](NC(=O)c1ccc(C#CC#Cc2cncn2C)cc1)C(=O)NO [Example 88-1, N-((1S,2R)-2-Amino-1-hydroxycarbamoyl-propyl)-4-[4-(3-methyl-3H-imidazol-4-yl)-buta-1,3-diynyl]-benzamide] | < 2 | 2 to 16 (≈ 5.47 to 43.8 µM) | 2 to 16 (≈ 5.47 to 43.8 µM) | < 2 | 16 to 64 (≈ 43.8 to 175 µM) | < 2 | 16 to 64 (≈ 43.8 to 175 µM) | A (MIC's of 2.0 μg/mL or less = A)
C[C@@H](N)[C@H](NC(=O)c1ccc(C#CC#Cc2ccncc2)cc1)C(=O)NO [Example 88-2] | < 2 | < 2 | 2 to 16 (≈ 5.52 to 44.2 µM) | < 2 | 2 to 16 (≈ 5.52 to 44.2 µM) | < 2 | 2 to 16 (≈ 5.52 to 44.2 µM) | A (MIC's of 2.0 μg/mL or less = A)
C[C@@H](N)[C@H](NC(=O)c1ccc(C#CC#Cc2cccnc2)cc1)C(=O)NO [Example 88-3] | < 2 | < 2 | 2 to 16 (≈ 5.52 to 44.2 µM) | < 2 | 2 to 16 (≈ 5.52 to 44.2 µM) | < 2 | > 64 | A (MIC's of 2.0 μg/mL or less = A)
